# How the values were obtained:
# [1] = system: HCV replicon (Genotype 1b); test: Luciferase genotype 1b replicon potency assay; settings: Hepatitis C virus, GETYPE1B, read-out: IC50 μM, HCV genotype 1b luciferase replicon, Renilla luciferase reporter
# in vitro = settings: human
SMILES,IC50 [1] [µM],CC50 (in vitro) [µM]
"CNc1nc(N)nc2c1ncn2C1O[C@H](COP(=O)(N[C@@H](C)C(=O)O[C@@H](C)c2ccccc2)Oc2cccc3ccccc23)[C@@H](O)[C@@]1(C)O (stereo partly drawn) [Example 82, (2S)-((S)-1-phenylethyl) 2-((((2R,3R,4R)-5-(2-amino-6-(methylamino)-9H -purin-9-yl)-3,4-dihydroxy-4-methyltetrahydrofuran-2-yl)methoxy) (naphthalen-1-yloxy)phosphorylamino)propanoate]",0.11,54
"CNc1nc(N)nc2c1ncn2[C@@H]1O[C@H](COP(=O)(N[C@@H](C)C(=O)OCC(C)(C)C)Oc2ccc3ncccc3c2)[C@@H](O)[C@@]1(C)O (stereo partly drawn) [Example 83, (2S)-neopentyl 2-((((2R,3R,4R,5R)-5-(2-amino-6-(methylamino)-9H-purin-9-yl)-3,4-dihydroxy-4-methyltetrahydrofuran-2-yl)methoxy)(quinolin-6-yloxy)phosphorylamino)propanoate]",0.36,> 100
C[C@H](NP(=O)(OC[C@H]1OC(n2cnc3c(NCc4ccccc4)nc(N)nc32)[C@](C)(O)[C@@H]1O)Oc1cccc2ccccc12)C(=O)OCC(C)(C)C (some centres unmarked) [Example 85],0.58,15
"C[C@H](NP(=O)(OC[C@H]1OC(n2cnc3c(NCCc4ccccc4)nc(N)nc32)[C@](C)(O)[C@@H]1O)Oc1cccc2ccccc12)C(=O)OCC(C)(C)C (stereo partly drawn) [Example 87, (2S)-neopentyl 2-((((2R,3R,4R)-5-(2-amino-6-(phenethylamino)-9H-purin-9-yl)-3,4-dihydroxy-4-methyltetrahydrofuran-2-yl)methoxy)(naphthalen-1-yloxy)phosphorylamino)propanoate]",0.27,42
"CSc1nc(N)nc2c1ncn2C1O[C@H](COP(=O)(N[C@@H](C)C(=O)O[C@@H](C)c2ccccc2)Oc2cccc3ccccc23)[C@@H](O)[C@@]1(C)O (stereo partly drawn) [Example 89, (2S)-((S)-1-phenylethyl) 2-((((2R,3R,4R)-5-(2-amino-6-(methylthio)-9H-purin-9-yl)-3,4-dihydroxy-4-methyltetrahydrofuran-2-yl)methoxy)(naphthalen-1-yloxy)phosphorylamino)propanoate]",0.14,27
"CSc1nc(N)nc2c1ncn2C1O[C@H](COP(=O)(N[C@@H](C)C(=O)OCC(C)(C)C)Oc2cccc3ccccc23)[C@@H](O)[C@@]1(C)O (stereo partly drawn) [Example 90, (2S)-neopentyl 2-((((2R,3R,4R)-5-(2-amino-6-(methylthio)-9H-purin-9-yl)-3,4-dihydroxy-4-methyltetrahydrofuran-2-yl)methoxy)(naphthalen-1-yloxy)phosphorylamino)propanoate]",0.033,41
"CSc1nc(N)nc2c1ncn2[C@@H]1O[C@H](COP(=O)(N[C@@H](C)C(=O)OCC(C)(C)C)Oc2ccc3ncccc3c2)[C@@H](O)[C@@]1(C)O (stereo partly drawn) [Example 91, (2S)-neopentyl 2-((((2R,3R,4R,5R)-5-(2-amino-6-(methylthio)-9H-purin-9-yl)-3,4-dihydroxy-4-methyltetrahydrofuran-2-yl)methoxy)(quinolin-6-yloxy)phosphorylamino)propanoate]",0.26,> 100
"COc1nc(NCc2ccc(F)cc2)nc2c1ncn2[C@@H]1O[C@H](COP(=O)(N[C@@H](C)C(=O)OCC(C)(C)C)Oc2cccc3ccccc23)[C@@H](O)[C@@]1(C)O (stereo partly drawn) [Example 93, (2S)-neopentyl 2-((((2R,3R,4R,5R)-5-(2-(4-fluorobenzylamino)-6-methoxy-9H-purin-9-yl)-3,4-dihydroxy-4-methyltetrahydrofuran-2-yl)methoxy)(naphthalen-1-yloxy)phosphorylamino)propanoate]",7.2,17
"COc1nc(N)nc2c1ncn2C1O[C@H](COP(=O)(N[C@@H](C)C(=O)OCc2ccccc2)Oc2cccc3ccccc23)C[C@@]1(C)O (stereo partly drawn) [Example 95, (2S)-benzyl 2-((((2S,4R)-5-(2-amino-6-methoxy-9H-purin-9-yl)-4-hydroxy-4-methyltetrahydrofuran-2-yl)methoxy)(naphthalen-1-yloxy)phosphorylamino)propanoate]",0.9,70
"COc1nc(N)nc2c1ncn2C1O[C@H](COP(=O)(N[C@@H](C)C(=O)O[C@@H](C)c2ccccc2)Oc2cccc3ccccc23)C[C@@]1(C)O (stereo partly drawn) [Example 96, (2S)-((S)-1-phenylethyl) 2-((((2S,4R)-5-(2-amino-6-methoxy-9H-purin-9-yl)-4-hydroxy-4-methyltetrahydrofuran-2-yl)methoxy)(naphthalen-1-yloxy)phosphorylamino)propanoate]",> 10,20
"COc1nc(N)nc2c1ncn2C1O[C@H](COP(=O)(N[C@@H](C)C(=O)OCC(C)(C)C)Oc2cccc3ccccc23)C[C@@]1(C)O (stereo partly drawn) [Example 97, (2S)-neopentyl 2-((((2S,4R)-5-(2-amino-6-methoxy-9H-purin-9-yl)-4-hydroxy-4-methyltetrahydrofuran-2-yl)methoxy)(naphthalen-1-yloxy)phosphorylamino)propanoate]",> 10,44
"COc1nc(N)nc2c1ncn2C1O[C@H](COP(=O)(N[C@@H](C)C(=O)OC2CCCCC2)Oc2cccc3ccccc23)C[C@@]1(C)O (stereo partly drawn) [Example 98, (2S)-cyclohexyl 2-((((2S,4R)-5-(2-amino-6-methoxy-9H-purin-9-yl)-4-hydroxy-4-methyltetrahydrofuran-2-yl)methoxy)(naphthalen-1-yloxy)phosphorylamino)propanoate]",> 10,20
"COc1nc(N)nc2c1ncn2C1O[C@H](COP(=O)(N[C@H](C(=O)OCc2ccccc2)C(C)C)Oc2cccc3ccccc23)C[C@@]1(C)O (stereo partly drawn) [Example 99, benzyl (2S)-benzyl 2-((((2S,4R)-5-(2-amino-6-methoxy-9H-purin-9-yl)-4-hydroxy-4-methyltetrahydrofuran-2-yl)methoxy)(naphthalen-1-yloxy)phosphorylamino)-3-methylbutanoate]",> 10,22
